Results on 3 molecules are retold here after ChEMBL document CHEMBL1153897, “Small molecules with potent osteogenic-inducing activity in osteoblast cells” (Bioorg Med Chem Lett, 2009).

By EC50 is commonly meant the concentration giving half of the maximal effect.

Each structure is given as a SMILES string. Active and inactive are the calls of the source. The rule behind the calls is not given here.

The test system of series [1] is MC3T3-E1. Description: Induction of osteogenesis in mouse MC3T3-E1 cells assessed as calcium level at 25 uM after 3 weeks. It counts as functional, cell-based. The conditions noted are these: MC3T3-E1, 504 h.
The subject of series [2] is MC3T3-E1. The series is described as follows: Induction of osteogenesis in mouse MC3T3-E1 cells assessed as osteocalcin secretion at 25 uM after 3 weeks. Conditions: MC3T3-E1, 504 h. The format is functional, cell-based.
In series [3] the test system is MC3T3-E1. The series is described as follows: Induction of osteogenesis in mouse MC3T3-E1 cells assessed as alkaline phosphatase secretion at 25 uM after 3 weeks by ELISA. The format is functional, cell-based. Conditions: MC3T3-E1, 504 h. In general terms: ELISA stands for enzyme-linked immunosorbent assay.
The nature of series [4]: Cytotoxicity against mouse MC3T3-E1 cells assessed as increase in apoptosis treated for 3 hrs measured after 22 hrs by caspase 3 colorimetric assay. It counts as cell-based.
In series [5] the test system is MC3T3-E1. Description: Inhibition of staurosporine-induced apoptosis in mouse MC3T3-E1 cells by caspase 3 colorimetric assay. It counts as functional, cell-based.
The nature of series [6]: Antiproliferative activity against mouse MC3T3-E1 cells after 24 hrs by BrdU incorporation assay. The format is cell-based. The conditions noted are these: mc3t3-e1, 24 h.
A short description of series [7]: Cytotoxicity against mouse MC3T3-E1 cells after 4 hrs by fluorescent Alamar blue assay. The format is cell-based. Conditions: mc3t3-e1, 4 h. (Resazurin is reduced to fluorescent resorufin, in cell work by metabolically active cells.)

Consider `COc1cc2nccc(Oc3ccc4c(NC(=O)c5ccc(C)cc5)cccc4c3)c2cc1OC`, for which the concentration giving a half-maximal response (EC50) came to 150 nM with MC3T3-E1 [1], 100 nM in the series on MC3T3-E1 [2] and 120 nM with MC3T3-E1 [3].

For the molecule `CN[C@@H]1C[C@H]2O[C@@](C)([C@@H]1OC)n1c3ccccc3c3c4c(c5c6ccccc6n2c5c31)C(=O)NC4` [STAUROSPORINE], the Activity entry in series [4] is listed as “Non-toxic”.

With `COc1cc2nccc(Oc3ccc4c(C(=O)Nc5ccc(C)cc5)cccc4c3)c2cc1OC`, the result in the series on MC3T3-E1 [5] was inactive. Moreover, the 50% effective concentration (EC50) was determined as 50 nM in the series on MC3T3-E1 [1], 30 nM with MC3T3-E1 [2] and 90 nM in the series on MC3T3-E1 [3]. The Activity entry in series [6] is given as “Dose-dependent effect”; in series [7], “Non-toxic”.
